From patent US20090291156A1, “HERBAL COMPOSITION FOR SKIN CARE” (SAGITTARIUS LIFE SCIENCE CORP., priority 2008, published 2009)

Key:
[1] = test system: dermal fibroblast collagen and glycosaminoglycan synthesis; assay: Stimulation of dermal fibroblast collagen and glycosaminoglycan synthesis (Sirius red, Safranin O, Alcian blue staining); type: cell-based, Human
Description: Human foreskin dermal fibroblasts were cultured in DMEM+10% FCS+Penicillin G (100 unit/ml)/Streptomycin (100 ug/ml)+Glutamine (2 mM)+Sodium pyruvate (0.1 mM) (C-medium) under humidifying atmosphere containing 5% CO2 at 37° C.
5×10^4 cells were plated into each well of 48 multiwell plate. Three to four days later, the cells reached confluency. The medium was replaced with fresh C-medium with or without H2O2 containing 25 ug/ml vitamin C with herbal preparations, Genistein or vitamin A. After treatment for 7 days, the cells were fixed with 10% formalin in saline, and stained with Sirius red, Safranin O or Alcian blue (at pH2.5 for hyaluronic acid staining). The relative amount of extracellular matrix deposition was estimated by visual comparison of the intensity and area of the respective stains.
At the end of treatments, the cells were washed twice with PBS, and were irradiated by UV (365 nm) at 20 mJ/cm^2 in PBS. Fresh serum free medium was replaced, and the cells were fixed and stained 24 hours later.

[2] = Radical scavenging activity examined by DPPH; type: biochemical; details: 0.1 mM DPPH, 30 minutes
Description: Herbal preparations with the designated final concentrations was mixed with 0.1 mM DPPH (2,2-diphenyl-1-picrylhydrazyl), incubated at room temperature in dark for 30 minutes. Absorbance at 517 nm was read by Varian Cary 50 Tablet UV-Visible Spectrophotometer. Vitamin C and vitamin E served as positive controls.

Compound: O=c1c(-c2ccc(O)cc2)coc2cc(O)cc(O)c12 [Genistein]
- effect on collagen and glycosaminoglycan synthesis (words, Table 3) ([1]; 10 μM, in the presence of 0.1 mM H2O2): did not show significant effect
- effect on collagen and glycosaminoglycan synthesis (words, Table 2) ([1]; 10 uM, without H2O2): did not show significant effect

Compound: vitamin E [Vit. E]
- % DPPH radical scavenging ([2]; 0.01 mM): 70.1%
- % DPPH radical scavenging ([2]; 0.1 mM): 86.8%

Compound: Vitamin A
- activity on collagen and glycosaminoglycan synthesis (words, FIG. 2) ([1]; 1 μM, in the presence of 0.05 mM H2O2): did not show significant activity
- activity on collagen and glycosaminoglycan synthesis compared to control (words, FIG. 1) ([1]; 1 μM, without H2O2): did not show significant activity
- effect on collagen and glycosaminoglycan synthesis (words, Table 5) ([1]; 10 μM, UV 365 nm at 20 mJ/cm^2): did not show significant effect
- effect on collagen and glycosaminoglycan synthesis (words, Table 4) ([1]; 10 μM, no UV): did not show significant effect

Compound: O=C1O[C@H]([C@@H](O)CO)C(O)=C1O [Vit. C, Vitamin C]
- % DPPH radical scavenging ([2]; 0.001 mM): 75.0%
- % DPPH radical scavenging ([2]; 0.01 mM): 99.3%
